Columns and labels:
[1] = test system: Zmpste24−/− mice; assay: Survival and body weight of Zmpste24−/− mice treated via drinking water; assay type: in vivo, mouse; details: NAC 1 mg/ml in drinking water
Procedure: (§1) Zmpste24^−/− mice have been described previously (Pendas et al., 2002). Mouse experimentation was performed in accordance with the guidelines of the Committee on the Use of Live Animals in Teaching and Research (CULATR) at the University of Hong Kong. New-born Zmpste24^−/− mice and wild-type controls were fed with resveratrol (20 μg/ml) or N-acetyl Cysteine (1 mg/ml) in drinking water. The survival of resveratrol-treated, NAC-treated, or vehicle-treated Zmpste24^−/− mice was recorded and their body weight was monitored weekly. The trabecular bone organization and bone mineral density were determined by micro-CT. The survival rate was analyzed by Kaplan-Meier method and statistical comparison was performed by Log-rank (Mantel-Cox) Test.
Briefly, resveratrol was supplemented at a concentration of 20 μg/ml in drinking water. Four months after treatment, BMSCs were collected for examination and comparison between resveratrol-treated and vehicle-treated Zmpste24^−/− mice.

[2] = test system: Zmpste24−/− mice; assay: BMSC colony-forming efficiency after in vivo treatment of Zmpste24−/− mice; parameters: species or system mouse; details: NAC 1 mg/ml in drinking water
Procedure: as §1
Bone marrow stromal cells were isolated and cultured according to modified protocol (Enumeration and Expansion of Mouse Mesenchymal Progenitor Cells Using MESENCUILT®, Stemcell Technologies, Canada). Briefly, bone marrow cells were flushed out from femurs and tibias with α-MEM (Invitrogen, Carlsbad, Calif., USA) supplemented with 20% FBS, and plated in petri dishes. Non-adherent cells were removed on day 3 and medium was replaced every 3 days. […] Colonies containing more than 50 cells were counted. BMSC colony forming efficiency was calculated as number of colonies formed by […] bone marrow nucleated cells. […]

[3] = test system: Zmpste24−/− mice; assay: HSC population in bone marrow of treated Zmpste24−/− mice (FACS); assay type: in vivo, mouse; details: NAC 1 mg/ml in drinking water
Procedure: as §1, with “Zmpste24^-/-” for “Zmpste24^−/−”, “([…]” for “(Pendas”, “Test. To analyze hematopoietic stem cells, mononucleated cells were collected by flushing femurs and tibias with staining medium (HBSS supplemented with 2% FBS) and stained with biotin-coupled lineage markers, Biotin-Flt3, PE-Sca-1, APC-c-Kit, and then SAv-PerCP. FACS profile analyses were performed using a BD FACSCalibur.” for “Test.”

[4] = test system: Zmpste24−/− HSCs; assay: ROS level in freshly isolated HSCs (DCF-DA, FACS); assay type: in vivo, mouse; details: NAC 1 mg/ml in drinking water; elevated in Zmpste24−/− HSCs
Procedure: as §1
To purify HSCs, red blood cells were lysed using NH4Cl before surface-marker staining, and HSCs were then sorted with a BD FACSVantage SE. Sorted HSCs were incubated with 5 μM DCF-DA at 37° C. for 30 min and analyzed by FACS at 488-nm excitation and 525-nm emission to determine the ROS level.

[5] = biological target: T1, SIRT1 (Homo sapiens, UniProt Q96EB6); details: Beher 2009; Dai 2010; Pacholec 2010; cited from earlier work
T1 sequence (Q96EB6 1-747): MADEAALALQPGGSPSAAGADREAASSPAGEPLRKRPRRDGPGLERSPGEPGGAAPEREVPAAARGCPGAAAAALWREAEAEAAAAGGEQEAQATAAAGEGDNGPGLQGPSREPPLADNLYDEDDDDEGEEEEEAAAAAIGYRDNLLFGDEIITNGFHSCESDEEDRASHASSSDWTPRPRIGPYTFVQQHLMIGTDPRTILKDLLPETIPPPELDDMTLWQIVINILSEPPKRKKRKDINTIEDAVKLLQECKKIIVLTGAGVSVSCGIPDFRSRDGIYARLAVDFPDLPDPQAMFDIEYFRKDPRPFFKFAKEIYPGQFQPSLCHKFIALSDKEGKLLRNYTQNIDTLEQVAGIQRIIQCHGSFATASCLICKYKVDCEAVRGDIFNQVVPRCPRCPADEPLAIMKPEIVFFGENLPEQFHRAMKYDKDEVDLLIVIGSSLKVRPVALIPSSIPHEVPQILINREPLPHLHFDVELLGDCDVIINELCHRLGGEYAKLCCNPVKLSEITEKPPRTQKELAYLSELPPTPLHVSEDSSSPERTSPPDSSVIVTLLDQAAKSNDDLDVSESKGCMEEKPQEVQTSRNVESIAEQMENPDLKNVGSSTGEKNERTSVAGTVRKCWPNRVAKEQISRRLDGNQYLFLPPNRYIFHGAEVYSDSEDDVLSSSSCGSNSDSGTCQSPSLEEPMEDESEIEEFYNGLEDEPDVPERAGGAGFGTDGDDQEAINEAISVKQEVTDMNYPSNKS

[6] = biological target: T1, SIRT1; assay: BIOMOL SIRT1 Fluorimetric Drug Discovery Kit (BSDK) deacetylase assay on fluorophore-conjugated acetyl p53 peptide; assay type: biochemical; parameters: purchased Biomol (Hamburg, Germany)
Procedure: (§2) SIRT1 deacetylation assay on fluorophore-conjugated synthetic p53 peptide was performed with SIRT1 Fluorimetric Drug Discovery Kit (Biomol, Hamburg, Germany) according to the manufactory's instruction. Cells were fractionated as described above except that protease inhibitors were NOT included and the nuclear matrix fraction was suspended into the assay buffer provided by the supplier. Different cell fractions or recombinant human lamin A (rhLamin A, Diatheva, Italy) were added in the reaction mix of SIRT1 Fluorimetric Drug Discovery Kit, incubated for 20 min at 37° C., and then the reaction was stopped and fluorescent signal was detected. SIRT1 deacetylase activity on native target was assayed using SIRT1 assay Kit from Sigma (USA). Constructs encoding FLAG-p53 and HA-p300 were co-transfected into HEK293 cells; FLAG-p53 was immunoprecipitated by anti-FLAG M2 Agarose (Sigma) followed by elution with FLAG peptide (Sigma). Purified acetyl FLAG-p53 was incubated with recombinant human SIRT1 (rhSIRT1) and NAD+ for 30 min at 37° C., in the presence or absence of rhLamin A or resveratrol. The acetylation level of FLAG-p53 was determined by Western blotting with pan anti acetyl lysine antibodies.
To test this hypothesis, in vitro deacetylase activity of rhSIRT1 by a BIOMOL® SIRT1 Fluorimetric Drug Discovery Kit (BSDK) was quantified in the presence or absence of NM derived from wild-type or Zmpste24−/− BMSCs.
This Example further investigates whether lamin A acts as an activator of SIRT1. In mammalian cells, lysine acetyltransferase p300 and SIRT1 mediate the acetylation and deacetylation of p53 on residue K382 (Gu and Roeder, 1997). BSDK utilizes fluorophore-conjugated acetyl p53 peptide as target (see Materials and Methods).

[7] = biological target: T1, SIRT1; assay: SIRT1 deacetylation assay on native full-length acetyl FLAG-p53 (Western blotting, anti-acetyl lysine); assay type: biochemical; parameters: purchased Biomol (Hamburg, Germany)
Procedure: as §2
To further test the effect of rhLamin A on the native target of SIRT1, acetyl p53 was purified by anti-FLAG immunoprecipitation in HEK293 cells ectopically expressing FLAG-p53 and p300, and SIRT1 deacetylation assay was performed as described in Materials and Methods.

[8] = biological target: T2, rhSIRT1 binding to rhLamin A (Homo sapiens, UniProt Q96EB6); assay: Pull-down of rhSIRT1 with rhLamin A in test tube (anti-lamin A immunoprecipitation); details: in a test tube
T2 construct: purchased Diatheva, Italy (rhLamin A)
T2 sequence (Q96EB6 1-747): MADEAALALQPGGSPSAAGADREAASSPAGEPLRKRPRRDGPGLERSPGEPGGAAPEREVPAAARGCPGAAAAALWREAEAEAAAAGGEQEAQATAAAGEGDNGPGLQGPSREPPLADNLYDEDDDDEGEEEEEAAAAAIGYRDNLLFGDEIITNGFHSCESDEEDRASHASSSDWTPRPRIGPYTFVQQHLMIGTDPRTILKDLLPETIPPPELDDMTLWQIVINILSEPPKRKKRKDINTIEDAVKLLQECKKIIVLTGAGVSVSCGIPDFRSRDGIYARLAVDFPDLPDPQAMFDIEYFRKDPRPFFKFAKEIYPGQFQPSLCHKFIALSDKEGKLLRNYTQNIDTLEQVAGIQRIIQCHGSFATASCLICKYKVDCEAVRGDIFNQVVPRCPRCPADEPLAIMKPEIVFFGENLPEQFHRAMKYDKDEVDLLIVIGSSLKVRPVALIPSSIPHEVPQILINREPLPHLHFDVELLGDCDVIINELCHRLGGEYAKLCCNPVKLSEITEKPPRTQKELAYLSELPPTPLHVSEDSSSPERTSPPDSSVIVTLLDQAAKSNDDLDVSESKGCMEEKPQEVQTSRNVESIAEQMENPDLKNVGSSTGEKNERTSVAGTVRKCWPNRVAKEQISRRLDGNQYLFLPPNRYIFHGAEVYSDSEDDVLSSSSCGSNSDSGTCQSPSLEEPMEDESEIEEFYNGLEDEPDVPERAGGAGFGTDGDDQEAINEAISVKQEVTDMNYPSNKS
T2 sequence (P02545 1-664 partner): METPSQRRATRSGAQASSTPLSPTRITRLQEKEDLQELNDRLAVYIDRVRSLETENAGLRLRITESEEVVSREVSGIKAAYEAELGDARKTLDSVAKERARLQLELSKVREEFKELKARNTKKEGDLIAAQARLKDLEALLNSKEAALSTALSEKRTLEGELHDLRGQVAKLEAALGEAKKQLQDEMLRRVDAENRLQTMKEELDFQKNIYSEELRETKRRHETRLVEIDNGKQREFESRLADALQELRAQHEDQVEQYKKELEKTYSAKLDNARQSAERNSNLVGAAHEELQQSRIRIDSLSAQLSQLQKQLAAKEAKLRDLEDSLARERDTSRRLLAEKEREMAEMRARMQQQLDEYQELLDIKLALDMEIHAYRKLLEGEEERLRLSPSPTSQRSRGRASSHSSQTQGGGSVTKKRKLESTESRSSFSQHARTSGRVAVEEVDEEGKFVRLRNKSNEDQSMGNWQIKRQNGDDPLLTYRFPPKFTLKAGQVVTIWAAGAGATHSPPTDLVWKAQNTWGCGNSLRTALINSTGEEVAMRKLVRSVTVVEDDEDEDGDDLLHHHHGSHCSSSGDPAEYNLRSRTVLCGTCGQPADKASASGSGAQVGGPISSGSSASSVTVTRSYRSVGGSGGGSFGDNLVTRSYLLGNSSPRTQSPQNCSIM
Procedure: For co-immunoprecipitation, cells were lysed into pre-chilled RIPA buffer containing 300 mM or 500 mM NaCl and protease inhibitors. Primary antibodies or appropriate control IgGs were added to the lysate and incubated for 2 h on a rocking platform at 4° C. before Agarose beads were added and incubated O/N. The beads were washed twice with RIPA buffer, resuspended into Laemmli buffer and boiled, and protein suspension was collected by centrifugation and stored for further analysis.
Consistently, ectopic EGFP-SIRT1 and DsRed-lamin A co-existed in the nuclear interior (FIG. 1D). This interaction seems specific to nuclear SIRT1 as neither cytoplasmic SIRT1 nor mitochondrial SIRT5 was detected in the anti GFP-lamin A immunoprecipitates (FIG. 6C). In addition, SIRT1 physically interacts with lamin A as recombinant human SIRT1 (rhSIRT1) was pulled down by recombinant human lamin A (rhLamin A) in a test tube (FIG. 1E).

Molecule: CC(=O)N[C@@H](CS)C(=O)O [N-acetyl Cysteine]
- lifespan [1]: extended lifespan to a similar extent as resveratrol did
- decline in BMSCs [2]: rescued
- decline in HSCs [3]: rescued
- ROS level in HSCs [4]: rescued ROS level

Molecule: O=C(Nc1ccccc1-c1cn2c(CN3CCNCC3)csc2n1)c1cnc2ccccc2n1 [SRT1720]
- SIRT1 activation towards full-length native target proteins, including p53 and PGC-1α [5]: do not confer any SIRT1 activation

Molecule: Cc1ccc(C(=O)Nc2ccc(S(=O)(=O)O)c3cc(S(=O)(=O)O)cc(S(=O)(=O)O)c23)cc1NC(=O)c1cccc(NC(=O)Nc2cccc(C(=O)Nc3cc(C(=O)Nc4ccc(S(=O)(=O)O)c5cc(S(=O)(=O)O)cc(S(=O)(=O)O)c45)ccc3C)c2)c1 [Suramin]
- Lamin A-stimulated SIRT1 deacetylase activity ([6]; SIRT1 inhibitor added): completely abolished

B1: LA-80: synthetic peptide of carboxyl 80 aa of lamin A (peptide)
peptide: GSHCSSSGDPAEYNLRSRTVLCGTCGQPADKASASGSGAQVGGPISSGSSASSVTVTRSYRSVGGSGGGSFGDNLVTRSY
- activating potential on SIRT1 towards fluorophore-conjugated synthetic peptide (Ac-Arg-His-Lys-LysAc-AMC) ([6]; compared with lamin A): much higher activating potential
- activating potential on SIRT1 towards full-length acetylated FLAG-p53 protein ([7]; compared with lamin A): much higher activating potential

B2: rhLamin A: recombinant human lamin A (rhLamin A, Diatheva, Italy) (protein, listed as Homo sapiens)
chain: METPSQRRATRSGAQASSTPLSPTRITRLQEKEDLQELNDRLAVYIDRVRSLETENAGLRLRITESEEVVSREVSGIKAAYEAELGDARKTLDSVAKERARLQLELSKVREEFKELKARNTKKEGDLIAAQARLKDLEALLNSKEAALSTALSEKRTLEGELHDLRGQVAKLEAALGEAKKQLQDEMLRRVDAENRLQTMKEELDFQKNIYSEELRETKRRHETRLVEIDNGKQREFESRLADALQELRAQHEDQVEQYKKELEKTYSAKLDNARQSAERNSNLVGAAHEELQQSRIRIDSLSAQLSQLQKQLAAKEAKLRDLEDSLARERDTSRRLLAEKEREMAEMRARMQQQLDEYQELLDIKLALDMEIHAYRKLLEGEEERLRLSPSPTSQRSRGRASSHSSQTQGGGSVTKKRKLESTESRSSFSQHARTSGRVAVEEVDEEGKFVRLRNKSNEDQSMGNWQIKRQNGDDPLLTYRFPPKFTLKAGQVVTIWAAGAGATHSPPTDLVWKAQNTWGCGNSLRTALINSTGEEVAMRKLVRSVTVVEDDEDEDGDDLLHHHHGSHCSSSGDPAEYNLRSRTVLCGTCGQPADKASASGSGAQVGGPISSGSSASSVTVTRSYRSVGGSGGGSFGDNLVTRSYLLGNSSPRTQSPQNCSIM
- rhSIRT1 pulled down by rhLamin A [8]: pulled down
- deacetylase activity of rhSIRT1 on acetyl p53 peptide ([6]; in the presence of rhLamin A, molar ratio rhLamin A to rhSIRT1 0.5, 1.0, 2.0, 4.0): increased in a dose-dependent manner
- decrease in FLAG-p53 acetylation level ([7]; rhLamin A-rhSIRT1 complex compared with rhSIRT1 only): around 20%

Reference: patent publication US10086039B2, “Lamin A, an activator of longevity/anti-aging SIRT1 protein” (THE UNIVERSITY OF HONG KONG, priority 2012, dated 2018)
